Data on 1 compound can be found in US5328985A, “Recombinant streptavidin-protein chimeras useful for conjugation of molecules in the immune system” (priority 1991, dated 1994).

Structures are written as SMILES.

In the assay the test system is recombinant streptavidin-Protein A chimeric protein encoded in pTSAPA-2 (streptavidin residues 16-133 fused to Protein A regions E and D; 31.4 kDa subunit …). The assay is described as follows: Determination of biotin-binding ability by gel filtration with D-[carbonyl-14C]biotin. To be noted: purified chimeric protein, subunit 31.4 kDa; room temperature, TBS; Sephadex G-25 gel filtration. How it is done:
Biotin-binding ability was determined by gel filtration according to Methods Enzymol., 18A:424 (1970) using a Sephadex G-25 desalting column (PD-10; 0.76×5.0 cm, Pharmacia-LKB) and D-[carbonyl-^14 C]biotin (52 mCi/mmol, Amersham). The binding of the chimeric protein to biotin was done at room temperature in TBS containing 0.02% NAN3, and the same solution was used as the eluent.
Background: SEC sorts molecules by how far they enter the pores of the column.

For the compound `O=C(O)CCCC[C@@H]1SC[C@@H]2NC(=O)N[C@@H]21` [biotin, D-biotin], the “biotin-binding ability: molecules of biotin bound per subunit” value was “more than 0.96 molecules of biotin per subunit”.
